Experimental data as given in US6949255B2, “Inhibitory chemical formulation with preservative system” (priority 2000, dated 2005).

Experiments:
VSV = format: cell-based, vesicular stomatitis virus
HIV = conditions: among prostitutes; Kreiss et al., JAMA 1992; cited from earlier work
[1] = system: vesicular stomatitis virus (VSV); format: cell-based

Molecule	inhibition of VSV (VSV)	concentrations at which toxicity activity was absent (L-929 cells; mouse)	killing of L-929 cells (toxicity titer) (L-929 cells; mouse)	concentrations at which inhibitory activity was absent (VSV)	L-929 toxicity titer (L-929 cells; mouse)	killing of L-929 cells (L-929 cells)	risk of HIV infection with use (HIV)	inhibition of multiplication of VSV [1]
COC(=O)c1ccc(O)cc1 [Methylparaben]	approximately 30 fold	< 0.2%	greater than 300 fold	–	–	–	–	–
CCCOC(=O)c1ccc(O)cc1 [Proplyparaben, propylparaben]	approximately 55 fold	< 0.004%	–	< 0.004%	approximately 15 fold	–	–	–
CC(O)CO (centres unmarked) [Propylene G, propylene glycol]	almost no inhibition	–	–	–	–	almost no inhibition or killing at all	–	–
OCC(O)CO [glycerol]	greater than 10 fold	below 8%	–	below 8%	–	–	–	–
Nonoxynol-9 [Nonoxynol-9®]	–	–	–	–	–	–	increased risk of HIV infection	almost identical degree of inhibition
